{
  "source": "ChEMBL document CHEMBL4811258",
  "about": "“Potent Antimalarials with Development Potential Identified by Structure-Guided Computational Optimization of a Pyrrole-Based Dihydroorotate Dehydrogenase Inhibitor Series” (J Med Chem, 2021)",
  "key": {"[1]": {"target": "Dihydroorotate dehydrogenase (quinone), mitochondrial (Rattus norvegicus, UniProt Q63707)", "sequence (Q63707 whole entry)": "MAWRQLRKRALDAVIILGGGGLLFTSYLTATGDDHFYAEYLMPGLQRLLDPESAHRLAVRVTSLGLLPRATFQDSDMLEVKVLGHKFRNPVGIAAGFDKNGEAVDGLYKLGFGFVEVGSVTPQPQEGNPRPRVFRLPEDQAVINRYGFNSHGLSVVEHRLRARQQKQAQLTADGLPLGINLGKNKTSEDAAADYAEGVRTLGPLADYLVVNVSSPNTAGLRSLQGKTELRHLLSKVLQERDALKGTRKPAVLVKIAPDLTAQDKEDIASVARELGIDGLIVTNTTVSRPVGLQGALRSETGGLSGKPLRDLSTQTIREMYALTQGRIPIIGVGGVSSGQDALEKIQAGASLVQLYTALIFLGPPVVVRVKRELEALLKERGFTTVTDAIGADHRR", "assay": "Inhibition of rat DHODH up to 100 uM", "conditions": "up to 100 µM"}, "[2]": {"target": "Dihydroorotate dehydrogenase (quinone), mitochondrial (Mus musculus, UniProt O35435)", "sequence (O35435 whole entry)": "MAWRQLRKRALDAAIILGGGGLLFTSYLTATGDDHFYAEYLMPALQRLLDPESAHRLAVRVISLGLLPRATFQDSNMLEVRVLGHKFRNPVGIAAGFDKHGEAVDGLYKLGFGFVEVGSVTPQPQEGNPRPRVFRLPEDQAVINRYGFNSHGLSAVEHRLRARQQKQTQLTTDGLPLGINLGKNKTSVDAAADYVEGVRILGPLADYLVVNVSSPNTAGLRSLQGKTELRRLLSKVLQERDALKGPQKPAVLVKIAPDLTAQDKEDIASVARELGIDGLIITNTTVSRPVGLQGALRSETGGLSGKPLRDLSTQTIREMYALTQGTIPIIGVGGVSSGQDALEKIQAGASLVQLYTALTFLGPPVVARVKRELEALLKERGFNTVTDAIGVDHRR", "assay": "Inhibition of mouse DHODH up to 100 uM", "conditions": "up to 100 µM"}, "[3]": {"assay": "Inhibition of dog DHODH up to 100 uM", "design": "species or system Canis lupus familiaris", "conditions": "up to 100 µM"}, "[4]": {"test_system": "L1210", "assay": "Cytotoxicity against mouse L1210 cells", "format": "cell-based"}, "[5]": {"assay": "Mutagenicity in Salmonella typhimurium by Ames test", "format": "toxicity", "conditions": "salmonella enterica subsp. enterica serovar typhimurium"}, "[6]": {"target": "Albumin (Bos taurus, UniProt P02769)", "sequence (P02769 whole entry)": "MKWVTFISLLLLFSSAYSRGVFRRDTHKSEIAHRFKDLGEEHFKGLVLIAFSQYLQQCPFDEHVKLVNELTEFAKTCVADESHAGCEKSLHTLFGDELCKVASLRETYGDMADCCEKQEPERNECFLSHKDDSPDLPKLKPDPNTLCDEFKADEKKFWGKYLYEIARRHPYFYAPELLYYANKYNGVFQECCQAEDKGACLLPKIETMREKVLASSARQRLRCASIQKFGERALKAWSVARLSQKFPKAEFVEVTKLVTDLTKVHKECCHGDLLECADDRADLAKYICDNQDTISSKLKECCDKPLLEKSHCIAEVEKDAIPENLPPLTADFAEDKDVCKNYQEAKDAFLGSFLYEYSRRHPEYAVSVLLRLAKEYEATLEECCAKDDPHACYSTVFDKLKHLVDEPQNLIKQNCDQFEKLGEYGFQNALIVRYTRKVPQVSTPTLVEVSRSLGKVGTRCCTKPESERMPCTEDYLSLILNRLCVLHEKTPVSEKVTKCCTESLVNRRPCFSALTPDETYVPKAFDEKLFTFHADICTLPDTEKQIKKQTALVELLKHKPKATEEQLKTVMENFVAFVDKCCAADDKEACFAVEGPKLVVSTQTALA", "assay": "Binding affinity to bovine serum albumin by Albumax assay", "format": "ADME", "conditions": "cattle, isolated protein"}, "[7]": {"assay": "Binding affinity to microsome (unknown origin)", "format": "ADME", "conditions": "microsomes"}, "[8]": {"assay": "Intrinsic clearance in mouse liver microsomes at 1 uM measured up to 4 hrs by LC-MS analysis", "format": "ADME, Microsome"}, "[9]": {"assay": "Plasma clearance in Swiss mouse at […], iv measured up to 24 hrs by LC-MS analysis", "format": "ADME, organism-based", "conditions": "dose 2.3 mg/kg"}, "[10]": {"assay": "Volume of distribution at steady state in Swiss mouse at […], iv measured up to 24 hrs by LC-MS analysis", "format": "ADME, organism-based", "conditions": "in vivo, dose 2.3 mg/kg, read-out: Vdss"}, "[11]": {"assay": "AUC (0 to infinity) in Swiss mouse at […], po measured up to 24 hrs by LC-MS analysis", "format": "ADME, organism-based", "design": "route oral, dose 2.6 mg/kg, time <=24", "conditions": "in vivo"}, "[12]": {"assay": "Cmax in Swiss mouse at 24 mg/kg, po measured up to 24 hrs by LC-MS analysis", "format": "ADME, organism-based", "design": "route oral, dose 24 mg/kg, time <=24", "conditions": "in vivo"}, "[13]": {"assay": "AUC (0 to infinity) in Swiss mouse at 24 mg/kg, po measured up to 24 hrs by LC-MS analysis", "format": "ADME, organism-based", "design": "route oral, dose 24 mg/kg, time <=24", "conditions": "in vivo"}, "[14]": {"assay": "Plasma clearance in Sprague-Dawley rat at […], iv measured up to 24 hrs", "format": "ADME, organism-based", "conditions": "dose 1.8 mg/kg"}, "[15]": {"assay": "Volume of distribution at steady state in Sprague-Dawley rat at […], iv measured up to 24 hrs", "format": "ADME, organism-based", "conditions": "in vivo, dose 1.8 mg/kg, read-out: Vdss"}, "[16]": {"assay": "AUC (0 to infinity) in Sprague-Dawley rat at 17 mg/kg, po measured up to 24 hrs", "format": "ADME, organism-based", "design": "route oral, dose 17 mg/kg, time <=24", "conditions": "in vivo"}, "[17]": {"assay": "Oral bioavailability in Sprague-Dawley rat at 17 mg/kg measured up to 24 hrs", "format": "ADME, organism-based", "conditions": "in vivo"}, "[18]": {"test_system": "Plasmodium falciparum", "assay": "Antiplasmodial activity against asexual blood stage Plasmodium falciparum D10 expressing yeast DHODH infected in human erythrocytes assessed as parasite killing", "format": "functional, organism-based"}, "[19]": {"test_system": "Plasmodium falciparum", "assay": "Antiplasmodial activity against Plasmodium falciparum Dd2 Uganda infected in human erythrocytes assessed as parasite killing using albumax media measured after 72 hrs by SYBR Green assay", "format": "functional, organism-based", "conditions": "Dd2, 72 h"}, "[20]": {"test_system": "Plasmodium falciparum", "assay": "Antimalarial activity against Plasmodium falciparum 3D70087/N9 infected in orally dosed NOD-SCID IL2Rgamma null mouse assessed as parasitemia level administered days after 3 post infection once daily for 4 days measured on day 7 by flow cytometry", "format": "functional", "conditions": "time 4 day"}, "[21]": {"assay": "Unbound AUC in orally dosed NOD-SCID IL2Rgamma null mouse infected with Plasmodium falciparum 3D70087/N9 administered days after 3 post infection once daily for 4 days measured on day 7 by flow cytometry", "format": "ADME, organism-based", "conditions": "in vivo, po, 96 h, time 4 day"}, "[22]": {"test_system": "Plasmodium falciparum", "assay": "Antimalarial activity against Plasmodium falciparum 3D70087/N9 infected in NOD-SCID IL2Rgamma null mouse assessed as parasitemia level at 50 mg/kg, po administered days after 3 post infection once daily for 4 days measured on day 7 by flow cytometry", "format": "functional, organism-based", "conditions": "time 4.0 day"}, "[23]": {"test_system": "Plasmodium falciparum", "assay": "Antimalarial activity against Plasmodium falciparum 3D70087/N9 infected in orally dosed NOD-SCID IL2Rgamma null mouse assessed as parasitemia level in human red blood cells at 50 mg/kg, po administered days after 1 day post infection twice daily for 6 days measured on day 7 by flow cytometry", "format": "functional, organism-based", "conditions": "time 6.0 day"}, "[24]": {"target": "T1, Cytochrome P450 2B6 (Homo sapiens, UniProt P20813)", "T1 sequence (P20813 whole entry)": "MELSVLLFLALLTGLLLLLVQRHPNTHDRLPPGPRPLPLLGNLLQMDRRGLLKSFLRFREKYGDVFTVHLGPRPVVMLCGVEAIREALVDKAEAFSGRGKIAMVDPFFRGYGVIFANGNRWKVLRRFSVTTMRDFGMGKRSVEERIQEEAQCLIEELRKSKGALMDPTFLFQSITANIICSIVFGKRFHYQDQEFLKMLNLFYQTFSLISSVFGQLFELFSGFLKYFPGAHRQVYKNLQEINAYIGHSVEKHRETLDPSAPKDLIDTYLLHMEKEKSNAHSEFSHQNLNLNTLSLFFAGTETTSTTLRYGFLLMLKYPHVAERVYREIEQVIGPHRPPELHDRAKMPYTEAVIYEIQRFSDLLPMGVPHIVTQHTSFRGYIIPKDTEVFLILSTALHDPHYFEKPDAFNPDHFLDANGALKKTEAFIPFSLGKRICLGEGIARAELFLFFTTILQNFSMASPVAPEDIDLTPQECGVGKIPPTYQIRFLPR"}, "[25]": {"target": "T2, Cytochrome P450 2C8 (Homo sapiens, UniProt P10632)", "T2 sequence (P10632 whole entry)": "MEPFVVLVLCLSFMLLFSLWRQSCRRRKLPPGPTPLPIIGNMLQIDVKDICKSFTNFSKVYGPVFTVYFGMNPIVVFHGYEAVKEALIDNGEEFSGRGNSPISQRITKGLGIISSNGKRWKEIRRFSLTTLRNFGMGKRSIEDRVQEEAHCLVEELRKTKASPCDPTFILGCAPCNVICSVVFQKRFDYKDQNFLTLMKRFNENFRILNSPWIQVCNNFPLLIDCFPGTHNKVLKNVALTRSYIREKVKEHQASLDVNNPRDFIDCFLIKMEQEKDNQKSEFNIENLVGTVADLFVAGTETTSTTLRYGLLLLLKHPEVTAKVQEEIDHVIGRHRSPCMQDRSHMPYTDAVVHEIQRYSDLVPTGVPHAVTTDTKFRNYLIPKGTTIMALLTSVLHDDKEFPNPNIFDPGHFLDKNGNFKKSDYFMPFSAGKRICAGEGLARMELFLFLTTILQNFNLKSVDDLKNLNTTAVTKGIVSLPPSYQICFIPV"}, "[26]": {"target": "Cytochrome P450 3A4 (Homo sapiens, UniProt P08684)", "sequence (P08684 whole entry)": "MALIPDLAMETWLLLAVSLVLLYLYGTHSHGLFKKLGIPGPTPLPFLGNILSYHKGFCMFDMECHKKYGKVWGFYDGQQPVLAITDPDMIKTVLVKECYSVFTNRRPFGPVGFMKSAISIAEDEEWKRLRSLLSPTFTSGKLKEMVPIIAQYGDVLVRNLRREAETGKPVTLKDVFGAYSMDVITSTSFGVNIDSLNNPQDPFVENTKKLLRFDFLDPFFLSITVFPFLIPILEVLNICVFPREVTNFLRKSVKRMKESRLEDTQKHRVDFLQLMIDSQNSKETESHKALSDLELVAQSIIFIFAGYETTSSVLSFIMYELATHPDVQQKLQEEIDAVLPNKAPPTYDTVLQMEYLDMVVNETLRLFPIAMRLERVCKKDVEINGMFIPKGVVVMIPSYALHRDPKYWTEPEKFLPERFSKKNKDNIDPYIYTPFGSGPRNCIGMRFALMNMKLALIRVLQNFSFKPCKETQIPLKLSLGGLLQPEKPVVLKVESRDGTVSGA"}, "[27]": {"conditions": "human, plasma"}, "[28]": {"conditions": "mouse, plasma"}, "[29]": {"conditions": "human, caco-2, pH 7.4"}, "[30]": {"conditions": "rat, in vivo, po, 10 mg/kg, 24 h"}, "[31]": {"conditions": "rat, in vivo, po, 10 mg/kg, 24 h", "remark": "listed apart in the source"}, "[32]": {"assay": "in vivo", "conditions": "Swiss, mouse, po"}, "[33]": {"assay": "in vivo", "conditions": "Sprague-Dawley, rat, po, 17 mg/kg"}},
  "note": "Activity calls are given as the source filed them. No cut-off for these calls is given here.",
  "data": [
    {"smiles": "Cc1c(C2(c3ccc(C(F)(F)F)nc3)CC2)c[nH]c1C(=O)NC(C)c1nc[nH]n1", "note": "(stereo in doubt; form 1)", "values": [
      {"measurement": "inhibition (INH)", "setting": "[1]", "value": "Not Active"},
      {"measurement": "inhibition (INH)", "setting": "[2]", "value": "Not Active"},
      {"measurement": "inhibition (INH)", "setting": "[3]", "value": "Not Active"},
      {"measurement": "Activity", "setting": "[4]", "value": "Non-Toxic"},
      {"measurement": "Activity", "setting": "[5]", "value": "Non-Toxic"},
      {"measurement": "Activity", "setting": "[6]", "value": 71.9, "unit": "%"},
      {"measurement": "Activity", "setting": "[7]", "value": 34.2, "unit": "%"},
      {"measurement": "Intrinsic clearance", "setting": "[8]", "value": 11, "unit": "µL/min/mg"},
      {"measurement": "clearance at 24 h", "setting": "[9]", "value": 2.8, "unit": "mL/min/kg"},
      {"measurement": "Vd at 24 h", "setting": "[10]", "value": 1.3, "unit": "L/kg"},
      {"measurement": "AUC(0-inf) at 24 h", "setting": "[11]", "value": 29, "unit": "µM·h"},
      {"measurement": "Cmax", "setting": "[12]", "value": 20, "unit": "µM"},
      {"measurement": "AUC", "setting": "[13]", "value": 250, "unit": "µM·h"},
      {"measurement": "clearance at 24 h", "setting": "[14]", "value": 6.8, "unit": "mL/min/kg"},
      {"measurement": "Vd at 24 h", "setting": "[15]", "value": 2.1, "unit": "L/kg"},
      {"measurement": "AUC(0-inf)", "setting": "[16]", "value": 120, "unit": "µM·h"},
      {"measurement": "bioavailability", "setting": "[17]", "value": 110, "unit": "%"},
      {"measurement": "EC50", "setting": "[18]", "value": "> 10", "unit": "µM"},
      {"measurement": "EC50", "setting": "[19]", "value": 0.0069, "unit": "µM"},
      {"measurement": "ED50", "setting": "[20]", "value": 26, "unit": "mg/kg"},
      {"measurement": "fAUC", "setting": "[21]", "value": 4.1, "unit": "µM·h"},
      {"measurement": "Activity", "setting": "[22]", "value": "Active"},
      {"measurement": "Activity", "setting": "[23]", "value": "Active"},
      {"measurement": "IC50", "setting": "[24]", "value": "> 20", "unit": "µM"},
      {"measurement": "IC50", "setting": "[25]", "value": "> 20", "unit": "µM"},
      {"measurement": "TDI", "setting": "[26]", "value": "Not Active"},
      {"measurement": "PPB", "setting": "[27]", "value": 92.8, "unit": "%"},
      {"measurement": "PPB", "setting": "[28]", "value": 92.1, "unit": "%"},
      {"measurement": "Papp", "setting": "[29]", "value": "70 10^-6 cm/s"},
      {"measurement": "Cmax", "setting": "[30]", "value": 6, "unit": "µM"},
      {"measurement": "F", "setting": "[31]", "value": 77, "unit": "%"},
      {"measurement": "Tmax at 24 h", "setting": "[32]", "value": 4, "unit": "h"},
      {"measurement": "Tmax at 24 h", "setting": "[33]", "value": 2.5, "unit": "h"}
    ]}
  ]
}
